From US20200407398A1, “Short Proline-Rich Lipopeptide Potentiates Minocycline and Rifampicin Against Multidrug-and Extensively Drug-Resistant Pseudomonas Aeruginosa” (priority 2018, published 2020) come the findings set out here.

Peptide text beside a SMILES is read from it. * marks the point of attachment. Palmitoyl = CCCCCCCCCCCCCCCC(=O)*

Data set [1] relates to human liver carcinoma HepG2 cells. It counts as cell-based. The note with it: read-out: IC50, inhibition of proliferation. The procedure: The CyQuant Direct cell proliferation assay kit (ThermoFisher, Canada) was used to assess the effect of C12-PRP on cell proliferation according to the manufacturer's protocol. Briefly, human embryonic kidney cells (HEK-293) and HepG2 cells were grown in Dulbecco's Modified Eagle's Medium supplemented with 10% fetal bovine serum. The cells were dispersed into 96-well plates (8000 cells/well in 100 μl ). Wells with media but no cells were used as blanks. After 24 hours, varying concentrations of C12-PRP, colistin and Adriamycin® were added to the wells containing cells but also the blanks. After incubation of the cells with the compounds for 48 hours, the CyQuant Direct detection reagent was added to the wells. Plates were incubated at 37° C. for 1 hour and the fluorescence (Excitation 480nm/Emission 535 nm) was read using a SpectraMax M2e (Molecular Devices, USA). As a positive control, CyQuant Direct detection reagent was added to a plate with untreated cells, incubated for 1 hour followed by fluorescence reading. The number of cells in each well was determined by detaching the cells by trypsin followed by counting on a CoulterZM counter to ensure an approximate equal number of cells per well.

Data set [2] deals with Gram-negative bacteria E. coli. The data set can be described thus: Microbroth dilution MIC, range over strains. The format is cell-based. The note with it: against the E. coli strains of the panel. As to the method:
(§1) The synthesized SPRLPs were evaluated for their antibacterial potency against a panel of Gram-positive and Gram-negative bacteria (Tables 2 & 3). Some of the included pathogens were collected from patients visiting or admitted to participating Canadian hospitals through the CAN-ICU (27) and CANWARD (28) national surveillance studies. Antibacterial activity was assessed using minimum inhibitory concentration (MIC) against various clinical pathogens.
(§2) Microbroth dilution susceptibility test following the Clinical and Laboratory Standards Institute (CLSI) guidelines (32) was performed to assess the in vitro antibacterial activity of SPRLPs. Overnight grown bacterial cultures were diluted in saline to achieve a 0.5 McFarland turbidity, followed by 1:50 dilution in Mueller-Hinton broth (MHB) for inoculation to a final concentration of 5×10^5 colony forming units/mL. The assay was done on a 96-well plate to which the agents of interest were 2-fold serially diluted in MHB and incubated with equal volumes of inoculum at 37° C. for 18 hours. MIC was determined as the lowest concentration to inhibit visible bacterial growth in form of turbidity, which was confirmed using EMax Plus microplate reader (Molecular Devices, USA) at a wavelength of 590 nm. The well containing MHB broth with or without bacterial cells was used as positive or negative control, respectively.
(In general: Broth dilution looks for growth in wells or tubes with falling amounts of substance.)

For a further data set, the system named is Gram-positive bacteria. In words: Microbroth dilution MIC, range over panel. Conditions: against Gram-positive bacteria of the panel. The format is cell-based. As to the method: as §1, §2
In data set [3] the test system is methicillin-resistant S. epidermidis CAN-ICU 61589 (ceftazidime-resistant). The format is cell-based. The note with it: methicillin-resistant CAN-ICU 61589 (ceftazidime-resistant). An outline of the steps:
(§3)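 CLSI microbroth dilution; MHB; inoculum 5×10^5 CFU/mL from 0.5 McFarland suspension diluted 1:50; 2-fold compound series; 37° C., 18 h; MIC = lowest concentration without visible growth, checked at 590 nm.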

The subject of a further data set is E. faecium ATCC 27270. The format is cell-based. In outline:
as §3

Another data set has as its system E. coli ATCC 25922. It counts as cell-based. In outline: as §3
Data set [4] relates to S. maltophilia CAN-ICU 62584. The format is cell-based. In outline: as §3
Data set [5] has as its system methicillin-susceptible Staphylococcus epidermidis CANWARD-2008 81388. The format is cell-based. The note with it: methicillin-susceptible CANWARD-2008 81388. An outline of the steps: as §3
A further data set concerns E. faecalis ATCC 29212. The format is cell-based. An outline of the steps:
as §3

Data set [6] has as its system E. coli CAN-ICU 61714 (gentamicin-resistant). It counts as cell-based. In outline: as §3
The test system of data set [7] is E. coli CAN-ICU 63074 (amikacin-intermediate resistant). The format is cell-based. In outline: as §3
The test system of data set [8] is A. baumannii CAN-ICU 63169. The format is cell-based. In outline: as §3
The subject of data set [9] is methicillin-resistant S. aureus ATCC 33592. It counts as cell-based. In outline: as §3
Data set [10] deals with P. aeruginosa CANWARD-2011 96846 (gentamicin-, tobramycin-resistant). The format is cell-based. An outline of the steps: as §3
Data set [11] deals with P. aeruginosa CAN-ICU 62308 (gentamicin-resistant). It counts as cell-based. In outline: as §3
For data set [12], the system named is E. coli CANWARD-2011 97615 (gentamicin-, tobramycin-, ciprofloxacin-resistant) aac(3′)iia. The format is cell-based. An outline of the steps: as §3
The test system of the next data set is S. aureus ATCC 29213. The format is cell-based. An outline of the steps: as §3
Data set [13] concerns P. aeruginosa wild-type PAO1. The format is cell-based. In outline: as §3
In another data set the test system is K. pneumoniae ATCC 13883. It counts as cell-based. In outline: as §3
The subject of the next data set is P. aeruginosa ATCC 27853. The format is cell-based. In outline:
as §3

The test system of another data set is pig erythrocytes. The format is cell-based. An outline of the steps:
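Washed pig erythrocytes in PBS were mixed with 2-fold serial dilutions of peptide and incubated for 1 h at 37° C. Released hemoglobin in the supernatant was read at 570 nm, with PBS and 0.1% Triton X-100 as controls. MHC was the minimum concentration giving 5% hemolysis.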

Data set [14] relates to wild-type and MDR/XDR P. aeruginosa clinical isolates. The note with it: checkerboard assay; P. aeruginosa. The procedure:
We evaluated the activity of SPRLPs in combination with fifteen clinically-used antibiotics against P. aeruginosa. Antibiotics tested included fluoroquinolones (moxifloxacin, ciprofloxacin and levofloxacin), aminoglycosides (gentamicin, tobramycin and amikacin), cephalosporins (ceftazidime and cefotaxime), carbapenems (meropenem and doripenem), aztreonam, rifampicin, minocycline, colistin and fosfomycin. The SPRLPs were screened initially at a fixed concentration of 8 μg/mL (5 μM) in combination with antibiotics against wild-type P. aeruginosa PAO1. We assessed potentiation by at least a four-fold absolute MIC reduction of the antibiotic, after which synergism was further validated by a conventional checkerboard assay. A fractional inhibitory concentration (FIC) index of ≤0.5, 0.5<x≤4 or >4 was interpreted as synergistic, indifferent or antagonistic interaction, respectively (31). FIC index was obtained by adding the FIC values of the antibiotic and the SPRLP adjuvant. FIC of antibiotics was calculated by dividing the MIC of the antibiotic in the presence of the adjuvant by the MIC of the antibiotic alone. Similarly, the FIC of adjuvant was calculated via dividing the MIC of the adjuvant in the presence of the antibiotic by the MIC of the adjuvant alone.
Isolates used in this study were either obtained from the American Type Culture Collection (ATCC), the Canadian National Intensive Care Unit (CAN-ICU) surveillance study (27) or the Canadian Ward Surveillance (CANWARD) study (28). Clinical isolates belonging to the CAN-ICU and CANWARD studies were recovered from patients suffering a presumed infectious disease entering or admitted in a participating medical center across Canada during the time of study. MDR P. aeruginosa strains in this study refer to those that are resistant to aminoglycosides, fluoroquinolones, cephalosporins, and carbapenems while XDR strains are those that are resistant to aminoglycosides, fluoroquinolones, cephalosporins, carbapenems, aztreonam and penicillin+β-lactamase inhibitor combination (39, 40).
as §2
The assay was performed on a 96-well plate, to which the agents of interest was 2-fold serially diluted in working MHB. Prior to serial dilution, SPRLP was added to the working MHB media so that a fixed final concentration of 8 μg/mL (5 μM) SPRLP per well was achieved. To ensure that the assay was working, the MIC determination test of the studied antibiotic (without SPRLP) was included on the same plate. Similar MIC results between the assay comparator and an independent MIC determination test (on a different plate) ensured validity of the synergy test. Overnight grown bacterial cultures were diluted in saline to 0.5 McFarland turbidity, followed by 1:50 dilution in MHB (without SPRLP) and inoculation into each well to a final concentration of approximately 5×10^5 colony forming units/mL. Wells containing only MHB (without SPRLP) with or without bacterial cells were used as positive or negative control, respectively.

colistin: the IC50 in [1] turned out to be 1500 nM.

One may read the MIC as the lowest concentration that inhibits growth of the organism. With `CCCCCCCCCCCCCCCC(=O)N1CCC[C@H]1C(=O)N[C@@H](CCCNC(=N)N)C(=O)N1CCC[C@H]1C(=O)N[C@@H](CCCNC(=N)N)C(=O)N1CCC[C@H]1C(=O)N[C@@H](CCCNC(=N)N)C(=O)N1CCC[C@H]1C(N)=O` [Compound C16-PRP, CH3(CH2)14CO-PRPRPRP-NH2] (Palmitoyl-PRPRPRP-NH2), the MIC range was 8 to 16 µg/mL in data set [2] and 4 to 16 µg/mL in the data set with Gram-positive bacteria. Also, the MIC in data set [3] is 8 µg/mL; with E. faecium ATCC 27270, 8 µg/mL; with E. coli ATCC 25922 it was 16 µg/mL; in [4], 64 µg/mL; in data set [5] it was 4 µg/mL; with E. faecalis ATCC 29212, 16 µg/mL. In addition, the MIC in [6] stood at 8 µg/mL; in data set [7], 8 µg/mL; in data set [8], 16 µg/mL; in [9], 16 µg/mL; in data set [10] it was 64 µg/mL; in data set [11], 32 µg/mL. Also, the MIC was determined as 8 µg/mL in data set [12]; 8 µg/mL in the data set with S. aureus ATCC 29213; 32 µg/mL in data set [13]; 64 µg/mL in the data set with K. pneumoniae ATCC 13883; 32 µg/mL with P. aeruginosa ATCC 27853. Besides, the “MHC (minimum concentration that resulted in 5% red blood cell hemolysis)” value with pig erythrocytes is 16 µg/mL. In data set [14], the “interaction with minocycline (in words)” value is “indifferent interaction”. In addition, the “interaction with rifampicin (in words)” value in data set [14] was “indifferent interaction”.
